Assay results published in US6348445B1, “Biologically active peptides with reduced toxicity in animals and a method for preparing same” (priority 1992, dated 2002).
Like-named read-outs stand apart in the source and are kept apart here. *1 amine or outer side, *2 acyl side, *3 side chain or, on linkers, in order; H or OH if unused. Where a SMILES comes first, the peptide text is derived from it. The star is where a group is joined. X2 = CCCCCCCCCCCCC/C=C/[C@@H](O)[C@H](CO)N*; Ibuprofenoyl = CC(C)Cc1ccc(C(C)C(=O)*)cc1; Myristoyl = CCCCCCCCCCCCCC(=O)*; Suc = O=C(CCC(=O)[*:2])[*:1]; Heptanoyl = CCCCCCC(=O)*; Octanoyl = CCCCCCCC(=O)*; Hexanoyl = CCCCCC(=O)*

How the values were obtained:
Format in all cases: cell-based
[1] = system: P. aeruginosa strain ATCC 27853; settings: ATCC 27853
Excerpt: (§1) Table I, which follows, indicates the Minimal Inhibitory Concentration (MIC) in […] of various peptides against S.aureus strain ATCC 25923(S), P. aeruginosa strain ATCC 27853(P), E. coli ATCC strain 25922(E), and C. 4albicans (CA). […] The peptides are unsubstituted at the N-terminal; substituted with an acetyl group at the N-terminal, as indicated by Ac-; substituted with an octanoyl group at the N-terminal, as indicated by Oct-; substituted with spinogosine, as indicated by Sph-; substituted with a succinyl group, as indicated by Suc-; substituted with a hexanoyl group, as indicated by Hex-; substituted with a heptanoyl group, as indicated by Hep-; substituted with a valeryl group, as indicated by Val-; substituted with a myristryl group, as indicated by Myr-; or substituted with an ibuprofyl group, as indicated by Ibu-;
(§2) The procedure for the anti-bacterial assay is based upon the guidelines of the National Committee for Clinical Laboratory Standards, Document M7-T2, Volume 8, No. 8, 1988, which document is entirely incorporated herein by reference.
(§3) Stock solutions of peptides, with and without the appropriate substitutions, were prepared at a concentration of 512 μg/ml in sterile deionized distilled water and stored at −70° C.
(§4) The stock peptide solution was diluted in serial dilutions (1:2) down the wells of a microtiter plate so that the final concentrations of peptides in the wells were 0.25, 0.50, 1, 2, 4, 8, 16, 32, 64, 128 and 256 μg/ml. 1-5×10^5 CFUs/ml of either S. aureus ATCC 25923, E. coli ATCC 25922, P. aeruginosa ATCC 27853, or C. albicans, were added to the wells in full strength Mueller Hinton broth (BBL 11443) from a mid-log culture. The inoculum was standardized spectrophotometrically at 600 nm and was verified by colony counts. The plates were incubated for 16-20 hours at 37° C., and the minimal inhibitory concentration (MIC) for each peptide was determined. Minimal inhibitory concentration is defined as the lowest concentration of peptide which produces a clear well in the microtiter plate. The minimal inhibitory concentration of each of the peptides with and/or without the appropriate substitutions is given in Table I below.
(§5) The in vitro anti-microbial activities of the methane sulfonate derivatives were determined according to the methods described in Examples 1 and 2. The activities against ATCC strains of S. aureus, E. coli, P. aeruginosa, and C. albicans, and the hemolysis of red blood cells were compared to the parent compound (Table IV). The activities for Compound 843 (Oct-SEQ ID NO:143) methane sulfonate against clinical strains of P. aeruginosa isolated from cystic fibrosis patients were compared to the parent compound (Table V). The activity for Compound 469 (Oct-SEQ ID NO:27) methane sulfonate against P. gingivalis was compared to the parent compound (Table VI).

[2] = system: E. coli ATCC strain 25922; assay: Minimal Inhibitory Concentration, microtiter broth dilution
Excerpt: as §1, §2, §3, §4, §5

C. albicans = system: C. albicans
Excerpt: as §1, §2, §3, §4

Molecule	Minimal Inhibitory Concentration P [1]	Minimal Inhibitory Concentration E ([2]; ATCC strain 25922)	Minimal Inhibitory Concentration CA (C. albicans)	Minimal Inhibitory Concentration CA (C. albicans; C. albicans, Table I)	Minimal Inhibitory Concentration E ([2]; E. coli ATCC strain 25922, Table I)
CCCCCCC(=O)N[C@@H](CC(C)C)C(=O)N[C@@H](CCCCN)C(=O)N[C@@H](CCCCN)C(=O)N[C@@H](CC(C)C)C(=O)N[C@@H](CC(C)C)C(=O)N[C@@H](CCCCN)C(=O)N[C@@H](CCCCN)C(=O)N[C@@H](CC(C)C)C(=O)N[C@@H](CCCCN)C(=O)N[C@@H](CCCCN)C(=O)N[C@@H](CC(C)C)C(N)=O [Hep-(SEQ ID NO: 110)-NH2] (Heptanoyl-LKKLLKKLKKL-NH2)	4 µg/mL	16 µg/mL	32 µg/mL	–	–
CCCCCC(=O)N[C@@H](CC(C)C)C(=O)N[C@@H](CCCCN)C(=O)N[C@@H](CCCCN)C(=O)N[C@@H](CC(C)C)C(=O)N[C@@H](CC(C)C)C(=O)N[C@@H](CCCCN)C(=O)N[C@@H](CCCCN)C(=O)N[C@@H](CC(C)C)C(=O)N[C@@H](CCCCN)C(=O)N[C@@H](CCCCN)C(=O)N[C@@H](CC(C)C)C(N)=O [Hex-(SEQ ID NO: 110)-NH2] (Hexanoyl-LKKLLKKLKKL-NH2)	8 µg/mL	16 µg/mL	64 µg/mL	–	–
CCCCCC(=O)N[C@H](C(=O)N[C@@H](C)C(=O)NCC(=O)N[C@@H](C)C(=O)N[C@H](C(=O)N[C@@H](C)C(=O)N[C@@H](CCCCN)C(=O)N[C@H](C(=O)N[C@@H](C)C(=O)NCC(=O)N[C@@H](CCCCN)C(=O)N[C@H](C(=O)N[C@@H](C)C(=O)N[C@@H](CCCCN)C(=O)N[C@H](C(=O)N[C@@H](C)C(=O)NCC(=O)N[C@@H](C)C(=O)N[C@H](C(=O)N[C@@H](C)C(N)=O)[C@@H](C)CC)[C@@H](C)CC)[C@@H](C)CC)[C@@H](C)CC)[C@@H](C)CC)[C@@H](C)CC [Hex-(SEQ ID NO: 150)-NH2] (Hexanoyl-IAGAIAKIAGKIAKIAGAIA-NH2)	128 µg/mL	32 µg/mL	128 µg/mL	–	–
CC[C@H](C)[C@H](NC(=O)[C@H](CCCCN)NC(=O)CNC(=O)[C@H](C)NC(=O)[C@@H](NC(=O)[C@H](CCCCN)NC(=O)[C@H](C)NC(=O)[C@@H](NC(=O)[C@H](CCCCN)NC(=O)CNC(=O)[C@H](C)NC(=O)[C@@H](NC(=O)[C@H](CCCCN)NC(=O)[C@H](C)NC(=O)[C@@H](NC(=O)[C@H](CCCCN)NC(=O)CNC(=O)[C@H](C)NC(=O)[C@@H](NC(=O)[C@H](CCCCN)NC(=O)C(C)c1ccc(CC(C)C)cc1)[C@@H](C)CC)[C@@H](C)CC)[C@@H](C)CC)[C@@H](C)CC)[C@@H](C)CC)C(=O)N[C@@H](C)C(N)=O (some centres unmarked) [Ibu-(SEQ ID NO: 27)-NH2] (Ibuprofenoyl-KIAGKIAKIAGKIAKIAGKIA-NH2)	4 µg/mL	8 µg/mL	128 µg/mL	–	–
CCCCCCCCCCCCCC(=O)N[C@@H](CC(C)C)C(=O)N[C@@H](CCCCN)C(=O)N[C@@H](CCCCN)C(=O)N[C@@H](CC(C)C)C(=O)N[C@@H](CC(C)C)C(=O)N[C@@H](CCCCN)C(=O)N[C@@H](CCCCN)C(=O)N[C@@H](CC(C)C)C(=O)N[C@@H](CCCCN)C(=O)N[C@@H](CCCCN)C(=O)N[C@@H](CC(C)C)C(N)=O [Myr-(SEQ ID NO: 110)-NH2] (Myristoyl-LKKLLKKLKKL-NH2)	16 µg/mL	16 µg/mL	>256 µg/mL	–	–
CCCCCCCCCCCCCC(=O)N[C@@H](CC(C)C)C(=O)N[C@@H](CCCCN)C(=O)N[C@@H](CCCCN)C(=O)N[C@@H](CC(C)C)C(=O)N[C@@H](CC(C)C)C(=O)N[C@@H](CCCCN)C(=O)N[C@@H](CCC(=O)O)C(=O)N[C@@H](CC(C)C)C(=O)N[C@@H](CC(C)C)C(=O)N[C@@H](CCCCN)C(=O)N[C@@H](CC(C)C)C(N)=O [Myr-(SEQ ID NO: 151)-NH2] (Myristoyl-LKKLLKELLKL-NH2)	128 µg/mL	64 µg/mL	>256 µg/mL	–	–
CCCCCCCC(=O)N[C@@H](CC(C)C)C(=O)N[C@@H](CCCCN)C(=O)N[C@@H](CCCCN)C(=O)N[C@@H](CC(C)C)C(=O)N[C@@H](CCCCN)C(=O)N[C@@H](CCCCN)C(=O)N[C@@H](CC(C)C)C(N)=O [Oct-(SEQ ID NO: 106)-NH2] (Octanoyl-LKKLKKL-NH2)	32,64 μg/ml	128 µg/mL	–	64,128 μg/ml	–
CCCCCCCC(=O)N[C@@H](CC(C)C)C(=O)N[C@@H](CC(C)C)C(=O)N[C@@H](CCCCN)C(=O)N[C@@H](CCCCN)C(=O)N[C@@H](CC(C)C)C(=O)N[C@@H](CCCCN)C(=O)N[C@@H](CCCCN)C(=O)N[C@@H](CC(C)C)C(N)=O [Oct-(SEQ ID NO: 107)-NH2] (Octanoyl-LLKKLKKL-NH2)	256 µg/mL	>256 µg/mL	128 µg/mL	–	–
CCCCCCCC(=O)N[C@@H](CCCCN)C(=O)N[C@@H](CC(C)C)C(=O)N[C@@H](CC(C)C)C(=O)N[C@@H](CCCCN)C(=O)N[C@@H](CCCCN)C(=O)N[C@@H](CC(C)C)C(=O)N[C@@H](CCCCN)C(=O)N[C@@H](CCCCN)C(=O)N[C@@H](CC(C)C)C(N)=O [Oct-(SEQ ID NO: 108)-NH2] (Octanoyl-KLLKKLKKL-NH2)	4 µg/mL	64 µg/mL	64 µg/mL	–	–
CCCCCCCCCCCCC/C=C/[C@@H](O)[C@H](CO)NC(=O)CCC(=O)N[C@@H](CCCCN)C(=O)N[C@H](C(=O)N[C@@H](C)C(=O)NCC(=O)N[C@@H](CCCCN)C(=O)N[C@H](C(=O)N[C@@H](C)C(=O)N[C@@H](CCCCN)C(=O)N[C@H](C(=O)N[C@@H](C)C(=O)NCC(=O)N[C@@H](CCCCN)C(=O)N[C@H](C(=O)N[C@@H](C)C(=O)N[C@@H](CCCCN)C(=O)N[C@H](C(=O)N[C@@H](C)C(=O)NCC(=O)N[C@@H](CCCCN)C(=O)N[C@H](C(=O)N[C@@H](C)C(N)=O)[C@@H](C)CC)[C@@H](C)CC)[C@@H](C)CC)[C@@H](C)CC)[C@@H](C)CC)[C@@H](C)CC [Sph-Suc-(SEQ ID NO: 27)-NH2] ({X2-Suc}-KIAGKIAKIAGKIAKIAGKIA-NH2)	>256 µg/mL	32 µg/mL	–	–	–
Ac-KIAGKIAKIAGKIAKIAGKIA-NH2 [Ac-(SEQ ID NO: 27)-NH2]	128 µg/mL	8 µg/mL	–	–	–
Ac-LKKLLKKLKKL-NH2 [Ac-(SEQ ID NO: 110)-NH2]	8,16 μg/ml	32,64 μg/ml	–	–	–
Ac-LLKKLKKLLKKL-NH2 [Ac-(SEQ ID NO: 113)-NH2]	64 µg/mL	64 µg/mL	–	–	–
H-KIAGKIAKIAGKIAKIAGKIA-OH [(SEQ ID NO: 27)-OH, (Lys Ile Ala Gly Lys Ile Ala)3]	128 µg/mL	8 µg/mL	–	–	–
H-LKKLLKKLKKL-NH2 [(SEQ ID NO: 110)-NH2]	32,64 μg/ml	–	–	–	64,128 μg/ml
H-LLKKLKKLLKKL-NH2 [(SEQ ID NO: 113)-NH2]	8,16 μg/ml	32 µg/mL	–	–	–
